In ChEMBL document CHEMBL5604062, “ASAP - ZIKV NS2B-NS3 protease fluorescence dose response” (2024):
Several values for one entry are separate records, joined by “and”; a condition that tells them apart may be missing. Equal entries are not always repeated.

molecular target: Nonstructural protein 3 (Zika virus, UniProt A0A024AXB9); assay: Functional biochemical assay to identify treatments for viral infectious disease that targets Zika NS2B-NS3 protease. Utilizing a direct enzyme activity measurement method, reading the fluorescence intensity is used to characterize the relative potency of inhibitors as IC50.; design: species or system PRVABC59
Sequence (A0A024AXB9 whole entry): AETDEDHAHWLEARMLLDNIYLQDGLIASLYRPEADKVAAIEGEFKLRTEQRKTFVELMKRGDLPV

Row | Structure (SMILES) | IC50
1 | N#C[C@H](Nc1ccc2c(c1)CNC2)c1cc(Cl)cc(C2CC2)c1 | 0.174 µM
2 | O=C1Cc2c(cccc2C(=O)N[C@H]2CC[C@@H](n3ccnn3)CC2)N1 | > 25 µM
3 | CCn1c(=O)c(N2CCC[C@H]2c2cncc(Br)c2)nc2ccccc21 | > 99.5 µM
4 | COCCO[C@]1(C)C(=O)Nc2cc(F)cc(C(=O)Nc3ccc4c(c3)CNC4)c21 | 3.16 µM
5 | c1ccc2oc(C3CCN(Cc4c[nH]c5ccccc45)CC3)nc2c1 | 60.6 µM
6 | NCc1cccc(NC(=O)c2c(F)c(Cl)cc(NC(=O)OCc3ccccc3)c2F)c1 | 55.6 µM
7 | O=C(Nc1cc(Cl)cc(C(=O)Nc2nccc([C@H]3CCCCN3)n2)c1)OCc1ccccc1 | > 99.5 µM
8 | O=C(Cc1cccc2[nH]ncc12)Nc1ccc2c(c1)CNC2 | > 25 µM
9 | O=C(Nc1ccc2c(c1)CNC2)c1cc(Br)cc2[nH]c(=O)[nH]c12 | 0.027 µM and 0.025 µM
10 | CCn1c(=O)c(N2CC[C@H](CO)C2)nc2ccc(C(=O)OC)cc21 | > 99.5 µM
11 | CN(C)CCOc1cccc(CNC(=O)[C@@H](NC(=O)OCc2ccccc2)c2ccc(OCc3ccccc3)cc2)c1 | > 99.5 µM
12 | NCc1cc(NC(=O)c2cc(Cl)cc(NC(=O)OCc3ccccc3)c2)cc([C@@H]2C[C@H]2C(=O)O)c1 | 5.66 µM
13 | C[C@H]1CNC[C@H](C(=O)Nc2cccc(CN)c2)C1 | > 99.5 µM
14 | NS(=O)(=O)c1cccc(-c2ccc(S(=O)(=O)Nc3ccc(Cl)cc3C(=O)O)cc2)c1 | > 99.5 µM
15 | NC(=O)c1cccc(NC(=O)c2cc(Cl)cc(NC(=O)OCc3ccccc3)c2)c1 | > 99.5 µM
16 | NC[C@H]1C[C@H]1NC(=O)c1cc(Cl)cc(NC(=O)OCc2ccccc2)c1 | > 99.5 µM
17 | NCc1cccc(NC(=O)[C@H](NC(=O)OCc2ccccc2)c2ccc(CO)cc2)c1 | > 99.5 µM
18 | Cn1ncc(C(=O)Nc2cc(-c3cccnc3)ccn2)c1C1CC1 | 20.8 µM
19 | NCc1cccc(NC(=O)c2ccc(F)c(NC(=O)OCc3ccccc3)c2F)c1 | > 99.5 µM
20 | O=C(Nc1ccc2c(c1)CNC2)c1cccc2[nH]c(C(F)(F)F)cc12 | 0.046 µM and 0.043 µM
21 | NCc1cccc(C(=O)Nc2cc(Cl)cc(NC(=O)OCc3ccccc3)c2)c1 | 16.6 µM
22 | NC1(c2cccc(NC(=O)c3cc(Cl)cc(NC(=O)OCc4ccccc4)c3)c2)CCOCC1 | > 99.5 µM
23 | COC(=O)c1cc(Cl)cc([C@@H]2CN(Cc3ccccc3)C[C@H]2c2cccc(CN)c2)c1 | 47.5 µM
24 | CCn1c(=O)c(N2CC[C@H](c3nccn3C)C2)nc2ccccc21 | > 99.5 µM
25 | COc1c(Cl)cc(Cl)cc1C(=O)Nc1cccc(CN)c1 | 13.9 µM
26 | O=C(Nc1cc2c(cc1C1CC1)CNC2)c1cc(F)cc2[nH]ncc12 | 0.092 µM and 0.046 µM

Row | Structure (SMILES) | IC50
27 | O=C(NCC(F)F)[C@H](Nc1ccc2c(c1)CNC2)c1cc(Cl)cc(C2CC2)c1 | 0.024 µM and 0.023 µM and 0.062 µM and 0.015 µM and 0.017 µM and 0.065 µM
28 | CNC(=O)[C@]1(Nc2ccc3c(c2)CNC3)C(=O)Nc2c(OC)cc(Br)cc21 | 53.8 µM
29 | c1cc(C2CCN(Cc3c[nH]c4ccccc34)CC2)c2ccncc2c1 | 24.6 µM
30 | O=C(Nc1ccc2c(c1)CNC2)c1cccc2c1[C@]1(CCNC1)C(=O)N2 | 0.113 µM
31 | CCc1cc(C(=O)Nc2cccc(-c3nnn[nH]3)c2)sc1-c1ccc(Cl)cc1 | 11.8 µM and 16.7 µM
32 | CN(c1ccc2c(c1)CNC2)[C@H](C(=O)NCC(F)F)c1cc(Cl)cc(C2CC2)c1 | 0.032 µM and 0.017 µM
33 | NCC1(NC(=O)[C@H](NC(=O)OCc2ccccc2)c2ccc(OCc3ccccc3)cc2)CCCCC1 | 58.5 µM
34 | Fc1cc(CNc2ccc3c(c2)CNC3)c2cc[nH]c2c1 | 9.31 µM
35 | NCc1cccc(NC(=O)[C@@H](NC(=O)OCc2ccccc2)c2cccc(OCC3CCC3)c2)c1 | 27.3 µM
36 | NCCNC(=O)c1cc(Cl)cc(NC(=O)OCc2ccccc2)c1 | > 99.5 µM
37 | c1csc(-c2nnc(Sc3ncnc4sccc34)o2)c1 | > 99.5 µM
38 | O=C(Nc1ccc2c(n1)CNC2)c1cc(Cl)cc2[nH]ncc12 | 0.608 µM
39 | CC(C)(C)OC(=O)N1Cc2cc(NC(=O)c3cc(Cl)cc4[nH]ncc34)cc(Br)c2C1 | 16.4 µM
40 | CC(C)N1CCC([C@H](NC(=O)OCc2ccccc2)C(=O)Nc2cccc(CN)c2)CC1 | > 99.5 µM
41 | c1cc(CN2CCC(c3cscn3)CC2)[nH]n1 | > 99.5 µM
42 | N#Cc1cc(NC(=O)OCc2ccccc2)cc(C(=O)Nc2cccc(CN)c2)c1 | 15.4 µM
43 | O=C(NCC1CCOCC1)[C@H](Nc1ccc2c(c1)CNC2)c1cc(Cl)cc2[nH]ncc12 | 0.209 µM
44 | O=C(Nc1ccc2c(c1)CNC2)N1CCC[C@](O)(c2ccccc2)C1 | > 25 µM
45 | O=C(Nc1ccc2c(c1)CNC2)c1cccc2[nH]cnc12 | 2.81 µM
46 | CC1(N2CCC(NS(=O)(=O)c3ccc(Cl)cc3C(=O)O)CC2)CCCCC1 | > 99.5 µM
47 | NC(=O)[C@H](c1c[nH]c2ccccc12)N1CCC(c2cnc3ccc[nH]c2-3)CC1 | 96.5 µM
48 | C=CC[C@H](Nc1cc(Cl)cc(NC(=O)OCc2ccccc2)c1)c1cccc(-c2nn[nH]n2)c1 | 13.5 µM and 9.86 µM and 11 µM
49 | CCc1cc(C(=O)Nc2cccc(-c3nnn[nH]3)c2)sc1C | > 99.5 µM
50 | COc1cccc(C2CCN(Cc3c[nH]c4ccccc34)CC2)c1 | 64.3 µM
51 | NCc1cccc(NC(=O)[C@H](NS(=O)(=O)c2ccc(Oc3ccccc3Cl)cc2)c2ccc(OCc3ccccc3)cc2)c1 | 65.4 µM
52 | Cn1nc(C(=O)Nc2cc(CCCN)ccn2)cc1C1CC1 | > 25 µM

Row | Structure (SMILES) | IC50
53 | Cc1cc(N2CCC(NS(=O)(=O)c3ccc(Cl)cc3C(=O)O)CC2)nc(C)n1 | > 99.5 µM
54 | O=C(Nc1ccc2c(c1)CNCCC2)c1cc(Cl)cc2[nH]ncc12 | 0.376 µM
55 | Cc1[nH]nc2c1CC[C@H](NC(=O)c1cccc3c1CC(=O)N3)C2 | > 25 µM
56 | NCc1cccc(NC(=O)c2cc(Cl)cc(NC(=O)OCc3ccccc3)c2)c1 | 4.79 µM
57 | O=c1[nH]c(CSc2ccccc2Cl)nc2ccsc12 | > 99.5 µM
58 | O=C(O)c1ccc(-c2cc(NC(=O)c3cc(F)cc4[nH]ncc34)cc3c2CNC3)cc1 | 0.035 µM and 0.029 µM
59 | Cc1c(C(=O)Nc2cccc(-c3nnn[nH]3)c2)sc2ccccc12 | > 99.5 µM
60 | O=C1Nc2ncccc2C[C@H]1NCc1n[nH]c2ccccc12 | > 99.5 µM
61 | Cc1ccc(NS(=O)(=O)c2ccc(Oc3ccccc3Cl)cc2)cc1CN | > 99.5 µM
62 | CS(=O)(=O)NC(=O)c1cc(CN)cc(NC(=O)c2cc(Cl)cc(NC(=O)OCc3ccccc3)c2)c1 | 7.05 µM
63 | O=C(O)c1cc2cc(-c3cc(Cl)cc4ncccc34)ccc2[nH]1 | 40.3 µM
64 | c1ccc(OC2CCN(Cc3c[nH]c4ccccc34)CC2)cc1 | > 99.5 µM
65 | CC(C)NC(=O)[C@H](Nc1ccc2c(c1)CNC2)c1cc(F)cc2[nH]ccc12 | 1.03 µM
66 | O=C(N[C@@H](C(=O)NC1CCCCC1)c1ccc(OCc2ccccc2)cc1)OCc1ccccc1 | > 99.5 µM
67 | NCC1(c2ccc(C(=O)N3CCc4scc(Br)c4C3)cc2)CC1 | > 99.5 µM
68 | NCc1cccc(NC(=O)c2cccc(NC(=O)OCc3ccccc3)n2)c1 | > 99.5 µM
69 | COc1cncc(CNC(=O)[C@@H](NC(=O)OCc2ccccc2)c2ccc(OCc3ccccc3)cc2)c1 | > 99.5 µM
70 | O=C(Nc1cc(Cl)cc([C@H](C#CCO)Nc2cccc(-c3nn[nH]n3)c2)c1)OCc1ccccc1 | 38.3 µM
71 | O=C(O)c1ccc(NC(=O)c2cc(Cl)cc3[nH]ncc23)cc1 | > 99.5 µM
72 | N=C(N)NCCc1ccc(NC(=O)Oc2ccccc2)cc1 | 87.4 µM and 21.5 µM
73 | NCc1cccc(NC(=O)[C@@H]2CCC[C@H](NC(=O)OCc3ccccc3)C2)c1 | > 99.5 µM
74 | NCc1ccc(-c2ccc(OCC3CCNCC3)nc2-c2ccc(-c3ccoc3)cc2)cc1 | 22.8 µM
75 | N#Cc1cc(F)cc(N2CC[C@H](CO)C2)c1 | > 99.5 µM
76 | NCc1cccc(NC(=O)[C@H](NS(=O)(=O)c2cccc(Cl)c2)c2ccc(OCc3ccccc3)cc2)c1 | 57.2 µM
77 | NC(=O)c1ccc(N2CC[C@@H](CO)C2)cc1 | > 99.5 µM
78 | CC(C)CNC(=O)c1cc(Cl)c(F)cc1NS(=O)(=O)c1ccc(Oc2ccccc2Cl)cc1 | 7.81 µM

Row | Structure (SMILES) | IC50
79 | CCCN1C(=O)[C@](Nc2ccc3c(c2)CNC3)(C(N)=O)c2cc(Cl)ccc21 | 21 µM
80 | CCn1c(=O)c(N2CC[C@H](CO)C2)nc2ccc(C(=O)NS(C)(=O)=O)cc21 | > 99.5 µM
81 | NCc1cccc(NC(=O)[C@@]23CCC[C@H](C2)N3C(=O)OCc2ccccc2)c1 | > 99.5 µM
82 | NCc1cccc(CCc2cc(Cl)cc(NC(=O)OCc3ccccc3)c2)c1 | 9.6 µM
83 | O=C(O)Cc1cc2c(c(Cc3c[nH]c4ccc(Cl)cc34)c1)OCC2 | > 99.5 µM
84 | O=C(N[C@@H](C(=O)Nc1n[nH]c2c1CNC21CC1)c1ccc(OCc2ccccc2)cc1)OCc1ccccc1 | > 99.5 µM
85 | NCc1cccc(NC(=O)[C@H](NC(=O)OCc2ccccc2)C2CCN(C(=O)Cn3ccnc3)CC2)c1 | > 99.5 µM
86 | NCc1cc(Cl)cc(-c2ccc3[nH]c(C(=O)O)cc3c2)c1 | > 99.5 µM
87 | C[C@@H](N)c1cc(Cl)cc(C(=O)Nc2cccc(CN)c2)c1 | 3.42 µM
88 | O=Cc1ccc(N2CCC(C(=O)N3CCN(CCc4ccccc4)CC3)CC2)cc1 | > 50.2 µM
89 | O=C1Cc2c(cccc2C(=O)N[C@H]2CCc3cnccc32)N1 | > 25 µM
90 | O=C(NCC(F)F)[C@H](Nc1ccc2c(c1)CNC2)c1cc(Cl)ccc1Cl | 0.232 µM
91 | NCCCc1ccnc(NC(=O)c2nnc(C3CC3)s2)c1 | > 25 µM
92 | CC(C)Nc1c(-c2cc(Cl)cc3[nH]ncc23)nc2ccc3c(n12)CNC3 | > 25 µM
93 | Cc1nnc(SC[C@H]2CCCN2C(=O)Nc2ccc3c(c2)CNC3)s1 | 5.77 µM
94 | NCc1cccc(NC(=O)[C@H](NC(=O)OCc2ccccc2)c2cccc(-c3ccccn3)c2)c1 | 82.4 µM
95 | NCc1cccc(NC(=O)[C@H](NC(=O)[C@H]2CCOC2)c2ccc(OCc3ccccc3)cc2)c1 | > 99.5 µM
96 | O=C(NCC(F)F)[C@H](Nc1ccc2c(c1)CNC2)c1cc(Cl)cc(Cl)c1OCCN1CCOCC1 | 0.197 µM
97 | CCCCCN(C)C(=O)c1cc(Cl)ccc1NS(=O)(=O)c1ccc(Oc2ccccc2Cl)cc1 | > 99.5 µM
98 | NCc1cccc(NC(=O)[C@@H](NC(=O)OCc2ccccc2)c2cccc(OC[C@H]3CCCO3)c2)c1 | > 99.5 µM
99 | O=C(Nc1ccc2c(c1)CNC2)c1cc(Cl)cc(C(F)(F)F)n1 | 21 µM
100 | NCc1cccc(NC(=O)[C@H](NC(=O)Cc2ccccc2)c2ccc(OCc3ccccc3)cc2)c1 | 28.9 µM and 28.2 µM
101 | COc1ccc2nc(C(F)(F)F)nc(N3CCN(c4ccc(N)nc4)CC3)c2c1 | > 99.5 µM
102 | O=C(Nc1ccc2c(c1)CNC2)c1cc(Cl)cc2cn[nH]c12 | 0.047 µM and 0.042 µM
103 | NCc1ccc(I)c(NC(=O)c2cc(Cl)cc(NC(=O)OCc3ccccc3)c2)c1 | 50.6 µM
